Data set [1] in a line: Acute toxicity in mice, up-down method. To be noted: mouse, in vivo. The format is in vivo. As to the method: (§1) Detecting the acute toxicity of some of the compounds by using up-down method. Intragastric administrating a drug to the mice of 20˜22 g; lyase is corn oil, fasting for 12 h before administration, with free drinking.
The test system of data set [2] is mice. Briefly: Acute toxicity in mice, up-down method. The format is in vivo. To be noted: mice, intragastric. As to the method:
as §1

Data set [3] deals with humanized embryonic nephrocyte (HEK293 cell). Briefly: Cytotoxicity, MTS method, HEK293 cell. The following applies: Homo sapiens. It counts as cell-based. The source says:
(§2) The toxicity of compounds is detected with MTS method in the immortalized mice bone marrowmacrophages (IBMM), mice embryonic fibroblast (NIH3t3) and humanized embryonic nephrocyte.
A general note: Tetrazolium dyes change colour on reduction, which living cells bring about.

Data set [4] has as its system immortalized mice bone marrowmacrophages (IBMM). Briefly: Cytotoxicity, MTS method, IBMM cell. It counts as cell-based. To be noted: Mus musculus, Bone marrow macrophage, read-out: IC50(mM) IBMM cell.
Excerpt: as §2

Data set [5] is described as follows: Release experiment of target compound in human plasma. To be noted: 37° C., 5 min to 9 h.
Method: Mobile phase: gradient elution; A: water; B: methanol;
Chromatographic column: CAPCEL PAK MF PH-1;
Detecting instrument: TQ-S; ion source: APCI; ion detection mode: MRM;
Dissolving the target compound with DMSO, then diluting to 5 μg/mL with the normal saline of 0.9%. The human blank plasma after subpackage is preserved at −70° C., unfreezing in a refrigerator at 4° C. when used. Take 20 μL of the blank plasma, adding 20 μL of the target compound solution as above formulated, vortexing for 15 s, and left it in the water bath at 37° C. […] Take the supernatant and inject 10 μL for detection.
For data set [6], the system named is mice embryonic fibroblast (NIH3t3). Briefly: Cytotoxicity, MTS method, NIH3T3 cell. The format is cell-based. To be noted: Mus musculus.
Excerpt: as §2

A further data set deals with monocytes. To be noted: via inhibition of ROS generation; Cell Research 2013, 23:898-914; cited from earlier work.
The subject of another data set is Her2 breast cancer. Briefly: Mice model with Her2 breast cancer. The format is in vivo.
Another data set concerns macrophages M2. Description: Polarization of macrophages M2. To be noted: FIG. 1.
Data set [7] relates to lung cancer in K-rasLA2 model mice. The following applies: fodder of 0.75% BHA; Cell Research 2013, 23:898-914; cited from earlier work.
Data set [8] in a line: Drug metabolism tests of BHA in vivo. The following applies: for half-life: mouse, plasma. The arrangement: species or system mice.
Data set [9] concerns mice. Briefly: Toxicology experiment of BHA in mice. It counts as in vivo.
The mark [10] stands for this setting: po, mice, intragastric, corn oil, up-down method, unit inferred.
Setting [11] is: HEK293, MTS method, read-out: IC50(mM) HEK293 cell.
Where [12] appears, read: NIH3T3, MTS method, read-out: IC50(mM) NIH3T3 cell.

The values that follow come from patent US10786481B2, “Hydroquinone compounds, preparation methods therefor, and use in anti-tumor or immunomodulation therapy” (Biomedical Analysis Center, Academy of Military Medical …, priority 2016, dated 2020).

Read-outs that look alike come from different tables or passages of the source.

For orientation: LD50 means the dose at which mortality reaches 50%. A low value points to a more toxic substance. Broadly, the IC50 is the midpoint of a concentration-inhibition curve. One may read the half-life as the time needed for the level to fall by half in the phase considered.

Regarding `COc1ccc(OC(=O)c2ccncc2)c(C(C)(C)C)c1` [XH2011, 2-tert-butyl-4-methoxyphenol isonicotinate], the 50% lethal dose (LD50) in [1] (setting [10]) is greater than 1300 mg/kg. Also, in the data set with mice [2], the “acute toxicity compared with BHA” value was “lower than that of 2-tert-butyl-4-methoxyphenol-oxyl (BHA)”. In addition, the half-maximal inhibitory concentration (IC50) is 0.311 mM in data set [3] (setting [11]), 0.119 mM in data set [4] (MTS method) and 0.0326 mM in [6] (setting [12]). The “release of BHA in human plasma” value in [5] is listed as “releases BHA”.

On to `COc1ccc(OC(=O)C2=CCCCC2)c(C(C)(C)C)c1` [XH2015, 2-tert-butyl-4-methoxyphenol cyclohexenecarboxylate], for which the 50% inhibitory concentration (IC50) in data set [3] (setting [11]) was found to be 0.109 mM; in data set [4] (MTS method), 0.147 mM; in data set [6] (setting [12]), 0.194 mM. Moreover, the “release of BHA in human plasma” value in data set [5] is reported as “releases BHA”.

`COc1ccc(OC(C)=O)c(C(C)(C)C)c1` [XH2006, 2-tert-butyl-4-methoxyphenol acetate] had an LD50 in data set [1] (setting [10]) greater than 1200 mg/kg. Besides, the “acute toxicity compared with BHA” value in the data set with mice [2] is “lower than that of 2-tert-butyl-4-methoxyphenol-oxyl (BHA)”. Besides, the IC50 worked out at 0.118 mM in [3] (setting [11]), 0.443 mM in [4] (MTS method) and 0.021 mM in data set [6] (setting [12]). Also, the “release of BHA in human plasma” value in data set [5] is reported as “releases BHA”.

For `CC#CC(=O)Oc1ccc(OC)cc1C(C)(C)C` [XH2019, 2-tert-butyl-4-methoxyphenol butynoate], the values for the IC50 in data set [3] (setting [11]), in data set [4] (MTS method) and in [6] (setting [12]) were 0.037 mM, 0.024 mM and 0.0476 mM, respectively. For the same compound, the “release of BHA in human plasma” value in data set [5] is “releases BHA”.

Regarding `COc1ccc(OC(=O)CC2CC2)c(C(C)(C)C)c1` [XH2040-2, (2-tert-butyl-4-methoxyphenol) cyclopropylacetate], the figures for the IC50 in [3] (setting [11]), in data set [4] (MTS method) and in data set [6] (setting [12]) were 0.237 mM, 0.202 mM and 0.232 mM, respectively. The “release of BHA in human plasma” value in data set [5] is listed as “releases BHA”.

In the case of `COc1ccc(OC(=O)c2cc3ccccc3[nH]2)c(C(C)(C)C)c1` [XH2038-3, (2-tert-butyl-4-methoxyphenol) 2-indoleformate], the IC50 in [3] (setting [11]) is 0.205 mM; in [4] (MTS method) it was 0.263 mM; in [6] (setting [12]), 0.517 mM. The “release of BHA in human plasma” value in data set [5] is recorded as “releases BHA”.

As to `CC(=O)N[C@@H](CS)C(=O)O` [NAC], the “differentiation of monocytes toward M2 macrophages” value (“differentiation” below) in the data set on monocytes is “inhibit differentiation of monocytes toward M2 macrophages”.

As for `COc1ccc(OC(=O)CC(F)(F)F)c(C(C)(C)C)c1` [XH2044-1, (2-tert-butyl-4-methoxyphenol) 3,3,3-trifluoropropionate], the IC50 in [3] (setting [11]) was 0.206 mM; in data set [4] (MTS method) it was greater than 0.7 mM; in [6] (setting [12]), 0.353 mM. Moreover, in data set [5], the “release of BHA in human plasma” value is reported as “releases BHA”.

As for `C#CC(=O)Oc1ccc(OC)cc1C(C)(C)C` [XH2039-2, (2-tert-butyl-4-methoxyphenol) propiolate], the IC50 stood at 0.125 mM in data set [3] (setting [11]), 0.159 mM in data set [4] (MTS method) and 0.248 mM in [6] (setting [12]). In data set [5], the “release of BHA in human plasma” value is “releases BHA”.

Take `COc1cc(C(C)=O)ccc1O` [Apocynin]: in the data set on monocytes, the “differentiation” value is “inhibit differentiation of monocytes toward M2 macrophages”.

Regarding `COc1ccc(OC(=O)C2CCCC2)c(C(C)(C)C)c1` [XH2039-6, (2-tert-butyl-4-methoxyphenol) cyclopentanecarboxylate], the IC50 stood at 0.136 mM in data set [3] (setting [11]), 0.171 mM in [4] (MTS method) and 0.229 mM in [6] (setting [12]). The “release of BHA in human plasma” value in data set [5] is reported as “releases BHA”.

`COc1ccc(OC(=O)Cc2cc(F)c(F)cc2F)c(C(C)(C)C)c1` [XH2041-2, (2-tert-butyl-4-methoxyphenol) 2,4,5-trifluorophenylacetate]: the IC50 in data set [3] (setting [11]) was 0.349 mM; in data set [4] (MTS method) it was 0.156 mM; in data set [6] (setting [12]), 0.26 mM. Besides, the “release of BHA in human plasma” value in data set [5] was “releases BHA”.

Consider `CCCCCCCC(=O)Oc1ccc(OC)cc1C(C)(C)C` [XH2040-4, (2-tert-butyl-4-methoxyphenol) octanoate], for which the IC50 in data set [3] (setting [11]) came to 0.283 mM; in [4] (MTS method), 0.198 mM; in data set [6] (setting [12]), 0.366 mM. Moreover, in data set [5], the “release of BHA in human plasma” value is “releases BHA”.

For `COc1ccc(OC(=O)c2ccc3ccccc3c2)c(C(C)(C)C)c1` [XH2036-4, (2-tert-butyl-4-methoxyphenol) 2-naphthoate], the IC50 stood at 0.253 mM in data set [3] (setting [11]), 0.23 mM in [4] (MTS method) and 0.232 mM in [6] (setting [12]). For the same compound, in data set [5], the “release of BHA in human plasma” value is “releases BHA”.

`COc1ccc(OC(=O)Cc2ccc(OC)c(OC)c2)c(C(C)(C)C)c1` [XH2018, (2-tert-butyl-4-methoxyphenol) 3,4-dimethoxyphenylacetate]: the IC50 worked out at 0.386 mM in data set [3] (setting [11]), 0.13 mM in [4] (MTS method) and 0.333 mM in [6] (setting [12]). In addition, the “release of BHA in human plasma” value in [5] is recorded as “releases BHA”.

Take `COc1ccc(O)c(C(C)(C)C)c1` [BHA, 2-tert-butyl-4-methoxyphenol]: the anti-tumor effects entry in the data set with Her2 breast cancer (HER2 mice model, 50-1000 mg/kg BW dosed in portions) is listed as “obvious anti-tumor effects”. The metastasis in head result with Her2 breast cancer (Her2 tumor model with the breast cancer, FIG. 1A) is “not observed”. Also, the “polarization effect of macrophages M2” value with macrophages M2 was “inhibits the polarization effect of macrophages M2”. In addition, in [7], the “generation of lung cancer” value is on record as “completely inhibited”. In addition, the 50% lethal dose (LD50) in data set [1] (oral, acute toxicity in mice, as restated) was determined as 1100 mg/kg; in data set [1] (setting [10]), 1100 mg/kg. Besides, the half-life in [8] (FIG. 2A and B, read-out: half-life of BHA in vivo) was 30 to 60 min; in [8] (mice, oral, read-out: T112 (half-life)) it was 20 min. In [8] (oral), this compound yielded a time to peak of 5 min. The IC50 was 0.325 mM in data set [3] (HEK293, read-out: IC50(mM) HEK293 cell); 0.218 mM in data set [4]; 0.267 mM in data set [6] (NIH3T3, read-out: IC50(mM) NIH3T3 cell). The “differentiation” value in the data set with monocytes is given as “inhibit differentiation of monocytes toward M2 macrophages”. In addition, the toxic signs result with mice [9] (600 mg/kg, recover after half an hour) is listed as “central effect of partially “hangover” state”. Further, the mortality entry in the data set on mice [9] (1100 mg/kg) is “Half of the mice with 1100 mg/kg are caused to die”. The “time until symptoms of the toxic reaction disappear in survival mice” value in the data set on mice [9] (1100 mg/kg) fell in the range of 30 to 60 min. In the data set with mice [9] (low dose, long term dosed for two years), the “toxic effect, long term dosing” value was “toxic effect is not seen”.

Regarding `CC1(C)CCCC(C)(C)N1[O]` [TEMPO], the “differentiation” value in the data set with monocytes was “inhibit differentiation of monocytes toward M2 macrophages”.

As to `COc1ccc(OC(=O)CC2CCCCC2)c(C(C)(C)C)c1` [XH2039-5, (2-tert-butyl-4-methoxyphenol) cyclohexylacetate], the values for the IC50 in data set [3] (setting [11]), in [4] (MTS method) and in [6] (setting [12]) were 0.087 mM, 0.067 mM and 0.106 mM, respectively. The “release of BHA in human plasma” value in data set [5] was “releases BHA”.

For the compound `COc1ccc(OC(=O)Cc2cccs2)c(C(C)(C)C)c1` [XH2038-5, (2-tert-butyl-4-methoxyphenol) 2-thiopheneacetate], the IC50 amounted to 0.266 mM in [3] (setting [11]), 0.202 mM in data set [4] (MTS method) and 0.146 mM in data set [6] (setting [12]). Moreover, in data set [5], the “release of BHA in human plasma” value is “releases BHA”.

With “(2-tert-butyl-4-methoxyphenol) morpholin-4-yl acetate [XH2044-2]”, the “acute toxicity compared with BHA” value with mice [2] is given as “lower than that of 2-tert-butyl-4-methoxyphenol-oxyl (BHA)”. This compound also returned an LD50 with mice [2] (corn oil, up-down method, unit inferred) greater than 1300 mg/kg. Moreover, the “release of BHA in human plasma” value in data set [5] was “releases BHA”.

Turning to `COc1ccc(OC(=O)c2cccnc2)c(C(C)(C)C)c1` [XH2010, 2-tert-butyl-4-methoxyphenol nicotinate], the LD50 in data set [1] (setting [10]) was greater than 1200 mg/kg. For the same compound, the “acute toxicity compared with BHA” value in the data set with mice [2] is “lower than that of 2-tert-butyl-4-methoxyphenol-oxyl (BHA)”. The results for the IC50 in data set [3] (setting [11]), in [4] (MTS method) and in data set [6] (setting [12]) were 0.207 mM, 0.175 mM and 0.186 mM, respectively. For the same compound, the “release of BHA in human plasma” value in data set [5] is reported as “releases BHA”.

Regarding `COc1ccc(OC(=O)c2ccccc2)c(C(C)(C)C)c1` [XH2005, 2-tert-butyl-4-methoxyphenol benzoate], the IC50 in data set [3] (setting [11]) came out at 0.082 mM; in [4] (MTS method) it was 0.439 mM; in data set [6] (setting [12]) it was 0.0875 mM. The “release of BHA in human plasma” value in data set [5] is “releases BHA”.

For `COc1ccc(OC(=O)Cc2c[nH]c3ccccc23)c(C(C)(C)C)c1` [XH2023, (2-tert-butyl-4-methoxyphenol) (1H-indole-3-yl)acetate], the IC50 came to 0.03 mM in data set [3] (setting [11]), 0.0065 mM in data set [4] (MTS method) and 0.065 mM in [6] (setting [12]). Also, in data set [5], the “release of BHA in human plasma” value is “releases BHA”.
